Source: US20220386606A1, “SPECIFICALLY SUBSTITUTED 3-PHENYL-5-SPIROCYCLOPENTYL-3-PYRROLIN-2-ONES AND THEIR USE AS HERBICIDES” (Bayer Aktiengesellschaft, priority 2019, published 2022)

What was measured:
ALOMY [1] = assay: Pre-emergence herbicidal action against ALOMY; format: in vivo, Alopecurus myosuroides; settings: 320 g/ha, scored visually after 3 weeks vs untreated controls
In short: (§1)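 Visual scoring after 3 weeks in the greenhouse gives percent activity (100% = dead, 0% = like untreated). Compounds, formulated as WP or EC, were applied to the soil surface over freshly sown seeds in sandy loam, water rate 600 to 800 L/ha plus 0.2% wetting agent.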

ECHCG [2] = assay: Pre-emergence herbicidal action against ECHCG; format: in vivo, Echinochloa crus-galli; settings: 320 g/ha, scored visually after 3 weeks vs untreated controls
In short: as §1

VIOTR [3] = assay: Post-emergence herbicidal action against VIOTR; format: in vivo, Viola tricolor; settings: 80 g/ha, visual assessment about 3 weeks after treatment vs untreated controls
Protocol: Seeds of monocotyledonous and dicotyledonous weed and crop plants are laid out in sandy loam soil in wood-fiber pots, covered with soil and cultivated in a greenhouse under good growth conditions. 2 to 3 weeks after sowing, the test plants are treated at the one-leaf stage. The compounds of the invention, formulated in the form of wettable powders (WP) or as emulsion concentrates (EC), are then sprayed onto the green parts of the plants as aqueous suspension or emulsion at a water application rate equating to 600 to 800 l/ha with addition of 0.2% wetting agent. After the test plants have been left to stand in the greenhouse under optimal growth conditions for about 3 weeks, the action of the preparations is assessed visually in comparison to untreated controls (herbicidal action in percent (%): 100% activity=the plants have died, 0% activity=like control plants).

VIOTR [4] = assay: Pre-emergence herbicidal action against VIOTR; format: in vivo, Viola tricolor; settings: 320 g/ha
In short: as §1

AVEFA [5] = assay: Pre-emergence herbicidal action against AVEFA; format: in vivo, Avena fatua; settings: 320 g/ha, scored visually after 3 weeks vs untreated controls
In short: as §1

LOLRI [6] = assay: Post-emergence herbicidal action against LOLRI; format: in vivo, Lolium rigidum; settings: 80 g/ha, visual assessment about 3 weeks after treatment vs untreated controls
In short: (§2)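 Sow in sandy loam and grow in the greenhouse for 2 to 3 weeks to the one-leaf stage. Spray the compound as an aqueous suspension or emulsion with 0.2% wetting agent, 600 to 800 l/ha water rate. Hold about 3 weeks, then score damage visually versus controls.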

DIGSA [7] = assay: Pre-emergence herbicidal action against DIGSA; format: in vivo, Digitaria sanguinalis; settings: 320 g/ha, scored visually after 3 weeks vs untreated controls
In short: as §1

AVEFA [8] = assay: Post-emergence herbicidal action against AVEFA; format: in vivo, Avena fatua; settings: 80 g/ha, visual assessment after about 3 weeks
In short: as §2

LOLRI [9] = assay: Pre-emergence herbicidal action against LOLRI (Table 8, titled post-emergence at 320 g/ha); format: in vivo, Lolium rigidum; settings: table stands in the pre-emergence section
In short: as §1

ALOMY [10] = assay: Post-emergence herbicidal action against ALOMY; format: in vivo, Alopecurus myosuroides; settings: 80 g/ha, visual assessment after about 3 weeks
In short: as §2

ECHCG [11] = assay: Post-emergence herbicidal action against ECHCG; format: in vivo, Echinochloa crus-galli; settings: 80 g/ha, visual assessment about 3 weeks after treatment vs untreated controls
In short: as §2

SETVI [12] = assay: Pre-emergence herbicidal action against SETVI; format: in vivo, Setaria viridis; settings: 320 g/ha, scored visually after 3 weeks vs untreated controls
In short: as §1

ABUTH [13] = assay: Pre-emergence herbicidal action against ABUTH; format: in vivo, Abutylon threophrasti; settings: 320 g/ha
Text: Seeds of monocotyledonous and dicotyledonous weed plants and crop plants are laid out in sandy loam soil in wood-fiber pots and covered with soil. The compounds of the invention, formulated in the form of wettable powders (WP) or as emulsion concentrates (EC), are then applied to the surface of the covering soil as aqueous suspension or emulsion at a water application rate equating to 600 to 800 L/ha with addition of 0.2% wetting agent.
After the treatment, the pots are placed in a greenhouse and kept under good growth conditions for the trial plants. The damage to the test plants is scored visually after a test period of 3 weeks by comparison with untreated controls (herbicidal activity in percent (%): 100% activity=the plants have died, 0% activity=like control plants).

DIGSA [14] = assay: Post-emergence herbicidal action against DIGSA; format: in vivo, Digitaria sanguinalis; settings: 80 g/ha, visual assessment about 3 weeks after treatment vs untreated controls
In short: as §2

POLCO = assay: Pre-emergence herbicidal action against POLCO; format: in vivo, Polygonum convolvulus; settings: 320 g/ha
In short: as §1

MATIN = assay: Pre-emergence herbicidal action against MATIN; format: in vivo; settings: 320 g/ha
In short: as §1

SETVI [15] = assay: Post-emergence herbicidal action against SETVI; format: in vivo, Setaria viridis; settings: 80 g/ha, visual assessment about 3 weeks after treatment vs untreated controls
In short: as §2

VERPE = assay: Pre-emergence herbicidal action against VERPE; format: in vivo, Veronica persica; settings: 320 g/ha
In short: as §1

ABUTH [16] = assay: Post-emergence herbicidal action against ABUTH; format: in vivo, Abutylon threophrasti; settings: 80 g/ha, visual assessment about 3 weeks after treatment vs untreated controls
In short: as §2

AMARE = assay: Pre-emergence herbicidal action against AMARE; format: in vivo, Amaranthus retroflexus; settings: 320 g/ha
In short: as §1

Row | Compound | Pre-emergence action against ALOMY in % (ALOMY [1]) | Pre-emergence action against ECHCG in % (ECHCG [2]) | Post-emergence action against VIOTR in % (VIOTR [3]) | Pre-emergence action against VIOTR in % (VIOTR [4]) | Pre-emergence action against AVEFA in % (AVEFA [5]) | Post-emergence action against LOLRI in % (LOLRI [6]) | Pre-emergence action against DIGSA in % (DIGSA [7]) | Post-emergence action against AVEFA in % (AVEFA [8]) | Pre-emergence herbicidal action against LOLRI in % (LOLRI [9]) | Post-emergence action against ALOMY in % (ALOMY [10]) | Post-emergence action against ECHCG in % (ECHCG [11]) | Pre-emergence action against SETVI in % (SETVI [12]) | Pre-emergence action against ABUTH in % (ABUTH [13]) | Post-emergence action against DIGSA in % (DIGSA [14]) | Pre-emergence action against POLCO in % (POLCO) | Pre-emergence action against MATIN in % (MATIN) | Post-emergence action against SETVI in % (SETVI [15]) | Pre-emergence action against VERPE in % (VERPE) | Post-emergence action against ABUTH in % (ABUTH [16]) | Pre-emergence action against AMARE in % (AMARE)
1 | C=CCOCC1CCC2(C1)NC(=O)C(c1c(C)cc(C#CC)cc1OC)=C2O (stereo not shown) [Example I-47] | 100% | 100% | 100% | 100% | 90% | 100% | 100% | 90% | 100% | 100% | 100% | 100% |  |  |  |  |  |  |  | 
2 | CC#Cc1cc(Br)c(C2=C(OC(=O)OCC)C3(CCC(COC)C3)NC2=O)c(OC)c1 (stereo not shown) [Example P-08] | 100% | 100% |  | 90% | 100% | 100% | 100% |  | 100% | 100% | 100% | 100% | 80% | 100% | 100% | 80% | 100% | 90% | 80% | 
3 | CC#Cc1cc(C)c(C2=C(OC(=O)C(C)C)C3(CCC(COC)C3)NC2=O)c(Br)c1 (stereo not shown) [Example P-32] | 100% | 100% |  | 100% | 90% | 100% | 100% | 90% | 100% | 100% | 100% | 100% | 80% | 100% | 80% | 80% | 100% | 90% | 90% | 90%
4 | CC#Cc1cc(C)c(C2=C(OC(=O)OCC)C3(CCC(COCC)C3)NC2=O)c(Br)c1 (stereo not shown) [Example P-35] | 100% | 100% | 90% | 100% | 100% | 100% | 100% | 80% | 100% | 100% | 90% | 100% |  | 100% |  |  | 100% | 80% |  | 100%
